Measured values reported in patent publication US20210261539A1, “COMPOUND HAVING BET INHIBITORY ACTIVITY AND PREPARATION METHOD AND USE THEREFOR” (Shanghai Haihe Pharmaceutical Co., Ltd., priority 2018, published 2021).

Target: T1, BRD4 BD1 (Homo sapiens, UniProt O60885)
T1 construct: Protein BRD4 BD1 used in the assay was purchased from Active Motif (cat. 31380); purchased Active Motif 31380
Test: HTRF in vitro enzyme activity assay, inhibition of BRD4 BD1 binding to acetylated H4 peptide
Conditions: IC50 values of the compounds against BRD4 BD1 binding; class symbols A/B/C
Experimental: Effect Examples: In Vitro Enzyme Activity Assay
Half inhibitory activity (IC50) of the compounds of the invention against the bromodomain protein BRD4 BD1 was determined in the present Examples.
The compounds of the invention were tested for inhibitory activity against BRD4 BD1 with Homogeneous Time-Resolved Fluorescence (HTRF).
2. Reagents, Consumable Materials and Instruments:
Protein BRD4 BD1 used in the assay was purchased from Active Motif (cat. 31380); streptavidin XL-665 (#610SAXLA) and EPIgeneous Binding Domain Kit A (#62BDAPEG) were both purchased from Cisbio Bioassays; [Lys(5,8,12,16)Ac] H4(1-21)-biotin (#64989), [Lys(5,8,12,16)Ac]H4(1-25) were available from Anaspec; OTX015 and ABBV-075 were purchased from Selleckchem Co. The 384-well ProxiPlate (#6008280) was purchased from Perkinelmer Co. The Laboratory microplate reader (Envision 2104) was available from PerkinElmer Co. The water used in the assay was Millipore-Q pure water.
3. Formulation of the Compound
10 mM DMSO stock solution of the test compound was diluted to 1 mM in DMSO, and then diluted 10-fold in Binding Domain dilution buffer (purchased from Cisbio Bioassays) for use (DMSO concentration in the final system was 0.1%), including 5 concentrations in 1:5 gradient.
4. Assay Protocol: 1 Batch, 2 Repeats
1) 5 μL of test compound was transferred to 45 μL Binding Domain dilution buffer.
2) 2 μL of 1× compound (4 μL Binding Domain dilution buffer: positive control; 6 μL enzyme buffer (purchased from Cisbio Bioassays): negative control) was transferred to a reaction plate.
3) 4 μL of 5×BRD 4(1) was added to the reaction plate (30 nM in the final system).
4) 4 μL of 5×[Lys(5,8,12,16)Ac] H4(1-21)-biotin was added to the reaction plate, and the plate was covered with a film and incubated at 37° C. for 30 min.
5) A detection mixture of SA-XL665 (2×) and anti-H3K9me0-Eu(K) (2×) was prepared in detection buffer (purchased from Cisbio Bioassays).
6) 10 μL of detection mixture (2×) was added to each well, incubated at RT for 3 h. The mp value was read by microplate reader Envision with the following parameters: […]

Row | SMILES | IC50 [µM]
1 | CCN1C(=O)C(C)N(C2CCCC2)c2nc(N3C(=O)c4ccccc4C3c3ccc(F)cc3)ccc21 (racemic) [Example A24, 4-cyclopentyl-1-ethyl-6-(1-(4-fluorophenyl)-3-oxoisoindolin-2-yl)-3-methyl-3,4-dihydropyrido[2,3-b]pyrazin-2(1H)-one] | 0.01 to 0.1
2 | CCN1C(=O)C(C)N(C2CCCC2)c2nc(-n3c(=O)c4ccccc4n3-c3ccc(Cl)cc3)ccc21 (racemic) [Example A28, 6-(1-(4-chlorophenyl)-3-oxo-1,3-dihydro-2H-indazol-2-yl)-4-cyclopentyl-1-ethyl-3-methyl-3,4-dihydropyridine [2,3-b]pyrazin-2(1H)-one] | 0.01 to 0.1
3 | CC1C(=O)N(C)c2ccc(N3C(=O)c4ccccc4C3c3ccc(Cl)cc3)nc2N1Cc1ccccc1 (racemic) [Example A35, 4-benzyl-6-(1-(4-chlorophenyl)-3-oxoisoindolin-2-yl)-1,3-dimethyl-3,4-dihydropyrido [2,3-b]pyrazin-2(1H)-one] | 0.01 to 0.1
4 | CC1C(=O)N(C)c2ccc(N3C(=O)c4ccccc4C3Cc3ccccc3)nc2N1C1CC1 (racemic) [Example A37, 4-cyclopropyl-6-(1-benzyl-3-oxoisoindolin-2-yl)-1,3-dimethyl-3,4-dihydropyrido [2,3-b]pyrazin-2(1H)-one] | 0.1 to 1
5 | CC1C(=O)N(C)c2ccc(N3C(=O)c4ccccc4C3c3ccc(F)cc3)nc2N1C1CCCC1 (racemic) [Example A38-P2, 4-cyclopentyl-6-(1-(4-fluorophenyl)-3-oxoisoindolin-2-yl)-1,3-dimethyl-3,4-dihydropyrido [2,3-b]pyrazin-2(1H)-one] | ≤ 0.01
6 | CC1C(=O)N(C)c2cnc(-n3c(=O)c4ccccc4n3-c3ccc(Cl)cc3)nc2N1C1CC1 (single isomer, unassigned) [Compound A89-P3] | ≤ 0.01
7 | CC1C(=O)N(C)c2ccc(N3C(=O)CCC3c3ccccc3)nc2N1C1CCCC1 (single isomer, unassigned) [Example A2-P2-2, 4-cyclopentyl-1,3-dimethyl-6-(2-oxo-5-phenylpyrrolidin-1-yl)-3,4-dihydropyrido[2,3-b]pyrazin-2(1H)-one] | ≤ 0.01
8 | C[C@@H]1C(=O)N(C)c2ccc(N3C(=O)CCC3c3ccccc3)nc2N1C (single isomer, unassigned) [Example A4-P2] | ≤ 0.01
9 | CC1C(=O)N(C)c2ccc(N3C(=O)CCC3c3ccccn3)nc2N1C1CC1 (single isomer, unassigned) [Example A6-P1, 4-cyclopropyl-1,3-dimethyl-6-(2-oxo-5-(pyridin-2-yl)pyrrolidin-1-yl)-3,4-dihydropyrido[2,3-b]pyrazin-2(1H)-one] | ≤ 0.01
10 | CC1C(=O)N(C)c2ccc(N3C(=O)CCC3c3ccc(F)cc3F)nc2N1C1CC1 (single isomer, unassigned) [Example A7-P3, 4-cyclopropyl-6-(2-(2,4-difluorophenyl)-5-oxopyrrolidin-1-yl)-1,3-dimethyl-3,4-dihydropyrido[2,3-b]pyrazin-2(1H)-one] | ≤ 0.01
11 | Cc1ccc(C2CCC(=O)N2c2ccc3c(n2)N(C2CC2)C(C)C(=O)N3C)cc1 (single isomer, unassigned) [Example A8-P3, 4-cyclopropyl-6-(2-(4-methylphenyl)-5-oxopyrrolidin-1-yl)-1,3-dimethyl-3,4-dihydropyrido[2,3-b]pyrazin-2(1H)-one] | ≤ 0.01
12 | CC1C(=O)N(C)c2ccc(N3C(=O)CCN3c3ccc(Cl)cc3)nc2N1C1CC1 (single isomer, unassigned) [Example A10-P2, 6-(2-(4-chlorophenyl)-5-oxopyrazolidin-1-yl)-4-cyclopropyl-1,3-dimethyl-3,4-dihydropyrido[2,3-b]pyrazin-2(1H)-one] | 0.01 to 0.1
13 | CC1C(=O)N(C)c2ccc(N3C(=O)c4ccccc4C3c3ccccc3)nc2N1C1CC1 (single isomer, unassigned) [Example A11-P3, 4-cyclopropyl-1,3-dimethyl-6-(1-oxo-3-phenylisoindolin-2-yl)-3,4-dihydropyrido[2,3-b]pyrazin-2(1H)-one] | ≤ 0.01
14 | CC1C(=O)N(C)c2ccc(-n3c(=O)c4ccccc4n3-c3ccc(Cl)cc3)nc2N1C1CC1 (single isomer, unassigned) [Example A12-P1, 6-(1-(4-chlorophenyl)-3-oxo-1,3-dihydro-2H-indazol-2-yl)-4-cyclopropyl-1,3-dimethyl-3,4-dihydropyrido[2,3-b]pyrazin-2(1H)-one] | ≤ 0.01
15 | CC1C(=O)N(C)c2ccc(N3C(=O)c4cccnc4C3(O)c3ccc(F)cc3F)nc2N1C1CC1 (single isomer, unassigned) [Example A13-P1, 4-cyclopropyl-6-(7-(2,4-difluorophenyl)-7-hydroxy-5-oxo-5,7-dihydro-6H-pyrrolo[3,4-b]pyridin-6-yl)-1,3-dimethyl-3,4-dihydropyrido[2,3-b]pyrazin-2(1H)-one] | ≤ 0.01
16 | CC1C(=O)N(C)c2ccc(N3C(=O)CCC3c3cccnc3)nc2N1C1CC1 (single isomer, unassigned) [Example A14-P1, 4-cyclopropyl-1,3-dimethyl-6-(2-oxo-5-(pyridin-3-yl)pyrrolidin-1-yl)-3,4-dihydropyrido[2,3-b]pyrazin-2(1H)-one] | ≤ 0.01
17 | CC1C(=O)N(C)c2ccc(N3C(=O)N(C)CC3c3ccccc3)nc2N1C1CC1 (single isomer, unassigned) [Example A19-P3, 4-cyclopropyl-1,3-dimethyl-6-(3-methyl-2-oxo-5-phenylimidazolidin-1-yl)-3,4-dihydropyrido[2,3-b]pyrazin-2(1H)-one] | ≤ 0.01

Second part, the compound after the results:

Row | IC50 [µM] | SMILES
18 | 0.01 to 0.1 | CC1C(=O)N(C)c2ccc(N3C(=O)c4ccccc4C3(O)c3ccc(Cl)cc3)nc2N1C1CC1 (racemic) [Example A30, 6-(1-(4-chlorophenyl)-1-hydroxy-3-oxoisoindolin-2-yl)-4-cyclopropyl-1,3-dimethyl-3,4-dihydropyrido [3,2-b]pyrazin-2(H)-one]
19 | ≤ 0.01 | CC1C(=O)N(C)c2ccc(N3C(=O)c4ccccc4C3c3ccc(Cl)cc3)nc2N1CCO (racemic) [Example A34, 6-(1-(4-chlorophenyl)-3-oxoisoindolin-2-yl)-4-(2-hydroxyethyl)-1,3-dimethyl-3,4-dihydropyrido [2,3-b]pyrazin-2(1H)-one]
20 | 0.01 to 0.1 | CC1C(=O)N(C)c2ccc(N3C(=O)c4ccccc4C3c3ccc(F)cc3)nc2N1C1CCCC1 (racemic) [Example A38, 4-cyclopentyl-6-(1-(4-fluorophenyl)-3-oxoisoindolin-2-yl)-1,3-dimethyl-3,4-dihydropyrido [2,3-b]pyrazin-2(1H)-one]
21 | ≤ 0.01 | CSc1cccc2c1C(=O)N(c1ccc3c(n1)N(C)[C@H](C)C(=O)N3C)C2c1cccnc1 (mixture of isomers) [Example A61, (3R)-1,3,4-trimethyl-6-(4-(methylthio)-3-oxo-1-(pyridin-3-yl)isoindolin-2-yl)-3,4-dihydropyrido[2,3-b]pyrazin-2(1H)-one]
22 | ≤ 0.01 | CC1C(=O)N(C)c2ccc(N3C(=O)CCC3c3ccccc3)nc2N1C1CC1 (single isomer, unassigned) [Example A1-P2-2, 4-cyclopropyl-1,3-dimethyl-6-(2-oxo-5-phenyl-pyrrolidin-1-yl)-3,4-dihydropyrido[2,3-b]pyrazin-2(1H)-one]
23 | ≤ 0.01 | C[C@@H]1C(=O)N(C)c2ccc(N3C(=O)CCC3c3ccccc3)nc2N1C1CCOCC1 (single isomer, unassigned) [Example A5-P1]
24 | 0.01 to 0.1 | Cc1cc(N2C(=O)CCC2c2ccccc2)nc2c1N(C)C(=O)C(C)N2C1CC1 (single isomer, unassigned) [Example A9-P1-2, 4-cyclopropyl-1,3,8-trimethyl-6-(2-oxo-5-phenylpyrrolidin-1-yl)-3,4-dihydropyrido[2,3-b]pyrazin-2(1H)-one]
25 | ≤ 0.01 | CC1C(=O)N(C)c2c(F)cc(N3C(=O)CCC3c3ccc(Cl)cc3)cc2N1C1CC1 (single isomer, unassigned) [Example A15-P1-1, 6-(2-(4-chlorophenyl)-5-oxopyrrolidin-1-yl)-4-cyclopropyl-8-fluoro-1,3-dimethyl-3,4-dihydroquinoxalin-2(1H)-one]
26 | ≤ 0.01 | CCN1c2nc(N3C(=O)CCC3c3ccc(F)cc3)ccc2N(C)C(=O)[C@H]1C (single isomer, unassigned) [Example A16-P1]
27 | 0.1 to 1 | CC(=O)N1c2nc(N3C(=O)CCC3c3ccc(F)cc3)ccc2N(C)C(=O)[C@H]1C (single isomer, unassigned) [Example A17-P1]
28 | ≤ 0.01 | CC1C(=O)N(C)c2ccc(N3C(=O)NCC3c3ccccc3)nc2N1C1CC1 (single isomer, unassigned) [Example A18-P4, 4-cyclopropyl-1,3-dimethyl-6-(2-oxo-5-phenylimidazolidin-1-yl)-3,4-dihydropyrido[2,3-b]pyrazin-2(1H)-one]
